Data taken from ChEMBL document CHEMBL3301361, “Experimental in vitro DMPK and physicochemical data on a set of publicly disclosed compounds”.
In brackets after ≈: the same amount, converted by molar mass.

Experiments:
physchem [1] = conditions: pH 7.4 buffer
physchem [2] = conditions: octan-1-ol/water
in vitro [3] = conditions: human, hepatocytes
in vitro [4] = conditions: hepatocytes
in vitro [5] = conditions: human, plasma
in vitro [6] = conditions: SD, HW or BN, rat, plasma
in vitro [7] = conditions: human

SMILES	solubility thermodynamic (physchem [1]) [µM]	logD (physchem [2]; pH 7.4, LogD7.4)	hepatocyte CLint (in vitro [3]) [µL/min/1e6 cells]	hepatocyte CLint (in vitro [4]) [µL/min/1e6 cells]	fraction unbound at 5 h (in vitro [5]; PPB)	also measured
COCCOc1nc(N)c2[nH]c(=O)n(Cc3cccc(CC(=O)OC)c3)c2n1	21.9 (≈ 8.48 µg/mL)	1.86	125	–	–	–
C=CC(=O)Nc1cccc(Oc2nc(Nc3ccc(N4CCN(C)CC4)cc3OC)ncc2Cl)c1	1 (≈ 0.495 µg/mL)	3.9	3.31	79.4	–	–
CNc1ncnc2c(CNc3cc(NC(=O)c4ccc5c(c4)OCCO5)ccc3C)cccc12	9.3 (≈ 4.24 µg/mL)	4	41.7	–	–	–
Cc1ccc(-n2c(C)cc(/C=C3\SC(=O)NC3=O)c2C)cc1	–	–	17.8	–	0.0016	–
N=c1c(S(=O)(=O)c2ccc(Cl)cc2)cc2c(=O)n3ccccc3nc2n1C1CCCC1	–	–	35.5	–	0.5	–
COc1ccccc1-c1csc(-n2ncc(C#N)c2N)n1	–	–	55	–	0.591	fraction unbound at 5 h (in vitro [6]): 0.529
Nc1nc(-c2ccc(Cl)c(Cl)c2)c(-c2ccncc2)s1	–	–	19.1	–	0.0074	–
O=C(CN1CCOCC1)Nc1ccc(-c2cccc3c(=O)cc(N4CCOCC4)oc23)cc1O	7.2 (≈ 3.35 µg/mL)	2.4	18.6	–	–	–
CCOc1cc(-c2cccc3c(=O)cc(N4CCOCC4)oc23)ccc1NC(=O)CN1CCOCC1	1.4 (≈ 0.691 µg/mL)	2.8	51.3	–	–	–
CC(C)Oc1cc(-c2cccc3c(=O)cc(N4CCOCC4)oc23)ccc1NC(=O)CN1CCOCC1	4 (≈ 2.03 µg/mL)	3	87.1	–	–	–
CC(C)COc1cc(-c2cccc3c(=O)cc(N4CCOCC4)oc23)ccc1NC(=O)CN1CCOCC1	3.5 (≈ 1.83 µg/mL)	3.8	> 150	–	–	–
C=CCOc1cc(-c2cccc3c(=O)cc(N4CCOCC4)oc23)ccc1NC(=O)CN1CCOCC1	4.7 (≈ 2.38 µg/mL)	3	83.2	–	–	–
O=C(O)COc1ccc(C(F)(F)F)cc1CN1CCN(S(=O)(=O)c2ccccc2)CC1	–	–	< 3	< 3	–	microsomal CLint (in vitro [7]; liver microsomes): 6.33 µL/min/mg
C[C@@H]1CN(C(=O)N[C@H](Cc2ccc(F)cc2)C(=O)N2CCC(C(=O)NC(C)(C)C)(C3CCCCC3)CC2)C[C@H](C)N1	–	–	10.7	–	–	fraction unbound at 5 h (in vitro [6]): 0.0872
COc1cc(C(CO)CO)ccc1Nc1ncc(Cl)c(-c2cnc3ccccn23)n1	6.8 (≈ 2.9 µg/mL)	3.1	19.9	–	–	–
Cc1ccc2c(c1)c(Sc1ccc(S(C)(=O)=O)cc1)c(C)n2CC(=O)O	–	-0.08	< 3	–	0.0081	microsomal CLint (in vitro [7]; liver microsomes): < 3 µL/min/mg
Cc1c(Oc2ccc(Cl)cc2)c2c(NS(C)(=O)=O)cccc2n1CC(=O)O	–	-0.98	< 3	–	0.0374	microsomal CLint (in vitro [7]; microsomes): < 3 µL/min/mg
O=c1[nH]c2c(O)ccc([C@@H](O)CNCCc3ccc(CNCCc4ccccn4)cc3)c2s1	–	-0.25	< 3	–	–	fraction unbound at 5 h (in vitro [6]): 0.483
CC(C)(C)S(=O)(=O)N[C@H]1CC[C@H](C(=O)Nc2ccc(C(F)(F)F)cn2)CC1	–	–	5.75	–	0.0409	–

SMILES	solubility thermodynamic (physchem [1]) [µM]	logD (physchem [2]; pH 7.4, LogD7.4)	hepatocyte CLint (in vitro [3]) [µL/min/1e6 cells]	hepatocyte CLint (in vitro [4]) [µL/min/1e6 cells]	fraction unbound at 5 h (in vitro [5]; PPB)	also measured
NC1(c2ccc(-c3nn4ccnc4cc3-c3ccccc3)cc2)CCC1	–	–	7.76	> 150	–	–
NC1(c2ccc(-c3nc4ccccn4c3-c3ccccc3)cc2)CCC1	–	–	18.2	> 150	–	–
NC1(c2ccc(-c3ncc4nccn4c3-c3ccccc3)cc2)CCC1	–	–	< 3	16.2	–	–
CC1CNC(Nc2c(Cl)cccc2Cl)=N1 (stereo unspecified)	–	–	< 3	–	–	fraction unbound at 5 h (in vitro [6]): 0.64
O=S(=O)(Nc1ccc2sc(CO)nc2c1)c1ccc(Br)cc1	–	–	24.6	–	–	fraction unbound at 5 h (in vitro [6]): 0.0018
O=S(=O)(Nc1ccc(C(F)(F)F)cc1)c1ccc2sc(CO)nc2c1	–	–	15.5	–	0.0027	–
O=C(CCCc1ccc2cccnc2n1)NCc1cc(-c2ccc(F)c(C(F)(F)F)c2)no1	–	–	19.9	–	0.0009	fraction unbound at 5 h (in vitro [6]): 0.0119
Cc1nn(C)c2cc(N3CCN(C(=O)[C@@H]4CCCC[C@H]4C(=O)NC4(C#N)CC4)[C@H](C)C3)ccc12	–	–	7.41	8.13	–	–
N#Cc1ccc(OC2CCN(C[C@H](O)CNC(=O)c3c[nH]c(=O)c4ccccc34)CC2)cc1Cl	–	2.56	< 3	15	0.197	–
CCC[C@H](CO)Nc1nc(S[C@@H](C)c2cccc(C#N)c2)nc2[nH]c(=O)sc12	–	3.7	22.4	–	0.0007	fraction unbound at 5 h (in vitro [6]): 0.0008; microsomal CLint (in vitro [7]; liver microsomes): 52.5 µL/min/mg
Cn1sc(=O)c2cc(S(N)(=O)=O)ccc21	–	0.3	27.5	17.4	–	–
O=c1[nH]c2ccccc2n1C1CCN(Cc2ccc(-c3nc4ccccc4cc3-c3ccccc3)cc2)CC1	–	–	< 3	35.5	–	–
CC[C@H](CO)Nc1nc(SCc2cccc(F)c2F)nc2nc(N)sc12	–	–	5.16	–	0.0149	microsomal CLint (in vitro [7]; liver microsomes): 62 µL/min/mg
CC(CO)(CO)Nc1nc(SCc2cccc(F)c2F)nc2nc(N)sc12	–	2.87	4.92	7	0.129	–
Cc1ccc(NC(=O)c2cccc(N(C)S(C)(=O)=O)c2)cc1NC(=O)c1ccc2ncccc2c1	–	–	< 3	72.4	–	–
COC(=O)c1ccc(C)c(NS(=O)(=O)c2ccc3c(c2)c(=O)sn3C)c1	–	2.6	> 150	> 150	–	–
COC(=O)C1=C(C)NC(C)=C(C(=O)OC(C)C)[C@@H]1c1cccc2nonc12 [(R)-ISRADIPINE]	–	3.77	126	> 150	–	–
C=CCc1ccccc1OCC(O)CNC(C)C (stereo unspecified) [ALPRENOLOL]	–	0.99	13.2	> 150	–	–
COc1ccccc1Oc1c(NS(=O)(=O)c2ccc(C(C)(C)C)cc2)nc(-c2ncccn2)nc1OCCO [BOSENTAN]	–	1.03	4.79	–	0.013	fraction unbound at 5 h (in vitro [6]): 0.0122; microsomal CLint (in vitro [7]; liver microsomes): 15.1 µL/min/mg

SMILES	solubility thermodynamic (physchem [1]) [µM]	logD (physchem [2]; pH 7.4, LogD7.4)	hepatocyte CLint (in vitro [3]) [µL/min/1e6 cells]	hepatocyte CLint (in vitro [4]) [µL/min/1e6 cells]	fraction unbound at 5 h (in vitro [5]; PPB)	also measured
CCc1cccc2cc(C(O)CNC(C)(C)C)oc12 (stereo unspecified) [BUFURALOL]	–	–	8.71	> 150	0.0801	–
COc1ccccc1OCCNCC(O)COc1cccc2[nH]c3ccccc3c12 (stereo unspecified) [CARVEDILOL]	–	–	26.3	–	–	fraction unbound at 5 h (in vitro [6]): 0.0262; microsomal CLint (in vitro [7]; microsomes): 41.7 µL/min/mg
O=C1CN=C(c2ccccc2Cl)c2cc([N+](=O)[O-])ccc2N1 [CLONAZEPAM]	240 (≈ 75.7 µg/mL)	–	3.72	–	–	logD (physchem [2]; pH 7.4): 3.72
CCC1(C2=NCCN2)Cc2ccccc2O1 (stereo unspecified) [EFAROXAN]	–	–	< 3	–	–	fraction unbound at 5 h (in vitro [6]): 0.76
Cn1cc(C2=C(c3cn(C4CCN(Cc5ccccn5)CC4)c4ccccc34)C(=O)NC2=O)c2ccccc21 [ENZASTAURIN]	0.8 (≈ 0.412 µg/mL)	–	6	–	–	fraction unbound at 5 h (in vitro [5]): 0.0017
CCOc1ccc2ccc(=O)oc2c1 [ETHOXYCOUMARIN]	1000 (≈ 190 µg/mL)	2.2	35.5	64.6	–	–
C#Cc1cccc(Nc2ncnc3cc4c(cc23)OCCOCCOCCO4)c1 [ICOTINIB]	–	–	3.55	21.9	–	–
CC1Cc2ccccc2N1NC(=O)c1ccc(Cl)c(S(N)(=O)=O)c1 (stereo unspecified) [INDAPAMIDE]	151 (≈ 55.4 µg/mL)	1.83	4.9	13.2	0.204	–
CCN1CCN(c2ccc(Nc3cc(N(C)C(=O)Nc4c(Cl)c(OC)cc(OC)c4Cl)ncn3)cc2)CC1 [INFIGRATINIB]	0.5 (≈ 0.28 µg/mL)	3.7	28.8	87.1	–	–
CS(=O)(=O)N1CCc2c(-c3cnc(N)nc3)nc(N3CCOCC3)nc21 [IZORLISIB]	1.7 (≈ 0.642 µg/mL)	1.2	< 3	5.37	–	–
Cc1oncc1C(=O)Nc1ccc(C(F)(F)F)cc1 [LEFLUNOMIDE]	67.6 (≈ 18.3 µg/mL)	3.9	< 3	24	–	–
N#Cc1ccc(C(c2ccc(C#N)cc2)n2cncn2)cc1 [LETROZOLE]	–	1.7	< 3	–	0.483	–
C[C@H]1C[C@@H]2[C@H]([C@@H](O)C[C@@]3(C)[C@H]2CC[C@]3(O)C(=O)CO)[C@@]2(C)C=CC(=O)C=C12 [METHYLPREDNISOLONE]	–	2.12	9.12	> 150	0.201	–
CC#C[C@]1(O)CC[C@H]2[C@@H]3CCC4=CC(=O)CCC4=C3[C@@H](c3ccc(N(C)C)cc3)C[C@@]21C [MIFEPRISTONE]	1.9 (≈ 0.816 µg/mL)	–	26.9	–	0.0015	microsomal CLint (in vitro [7]; liver microsomes): 79 µL/min/mg
CC(C)c1cc(C(=O)N2Cc3ccc(CN4CCN(C)CC4)cc3C2)c(O)cc1O [ONALESPIB]	93.3 (≈ 38.2 µg/mL)	2.5	23.4	–	–	–
CNC(=O)c1ccc(C)c(-n2c(C)cc(OCc3ccc(F)cc3F)c(Br)c2=O)c1 [PH-797804]	21.4 (≈ 10.2 µg/mL)	2.8	< 3	–	–	fraction unbound at 5 h (in vitro [6]): 0.0183
CCCN1CCCC[C@H]1C(=O)Nc1c(C)cccc1C [ROPIVACAINE]	–	–	15.5	–	–	fraction unbound at 5 h (in vitro [6]): 0.511
CO[C@H]1C[C@@H]2CC[C@@H](C)[C@@](O)(O2)C(=O)C(=O)N2CCCC[C@H]2C(=O)O[C@H]([C@H](C)C[C@@H]2CC[C@@H](O)[C@H](OC)C2)CC(=O)[C@H](C)/C=C(\C)[C@@H](O)[C@@H](OC)C(=O)[C@H](C)C[C@H](C)/C=C/C=C/C=C/1C [SIROLIMUS]	–	–	50.1	> 150	–	–
CC(c1cc2ccccc2s1)N(O)C(N)=O (stereo unspecified) [ZILEUTON]	436 (≈ 103 µg/mL)	2.05	7.76	–	–	–
